In patent US7425631B2 (Amgen Inc., priority 2003, dated 2008):

Target: T1, human B1 receptor (Homo sapiens, UniProt P46663)
T1 construct: expressed in transfected cells
T1 sequence (P46663 1-353): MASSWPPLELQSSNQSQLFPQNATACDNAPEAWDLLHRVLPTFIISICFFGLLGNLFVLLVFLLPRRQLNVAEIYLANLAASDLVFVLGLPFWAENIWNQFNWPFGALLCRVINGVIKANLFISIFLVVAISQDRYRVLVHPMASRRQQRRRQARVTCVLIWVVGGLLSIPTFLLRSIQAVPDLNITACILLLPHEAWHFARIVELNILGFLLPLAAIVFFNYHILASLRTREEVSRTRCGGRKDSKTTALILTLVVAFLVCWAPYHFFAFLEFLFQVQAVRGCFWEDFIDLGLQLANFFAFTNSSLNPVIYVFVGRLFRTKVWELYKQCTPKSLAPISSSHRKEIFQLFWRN
Assay: In vitro assay of human B1 receptor function using calcium flux (aequorin luminescence)
Format: cell-based
Conditions: CHO D-/hB1/Aequorin cells, agonist 20 nM des-Arg10-Kallidin (EC80); read-out: binding IC50's to hB1 receptor function
Experimental: Activation of the Gq linked B1 receptor results in an increase in intracellular calcium. […] Aequorin is a 21-kDa photoprotein that forms a bioluminescent complex when linked to the chromophore cofactor coelenterazine.
Following coelenterazine incubation, an automated flash-luminometer platform was used to dispense the B1 antagonist compounds (dissolved in DMSO and diluted with buffer to the desired concentration (final DMSO concentration <1% DMSO)) to the cell plate, a CCD camera situated underneath the cell plate took 12 images of the cell plate at 5 second intervals to determine if there was any agonist activity with the compounds. The hB1 agonist, des-Arg10-Kallidin, was added to the cell plate and another 12 images were recorded to determine the IC50 of the antagonist(s).

| IC50 [nM] | SMILES |
| --- | --- |
| < 10 | CC(C)(C)NCc1ccc2c(c1)CCC[C@H]2NC(=O)C[C@@H](NS(=O)(=O)c1ccc(C(C)(C)C)cc1)c1ccc(F)cc1 [do, N-[6-(tert-Butylamino-methyl)-1,2,3,4-tetrahydro-naphthalen-1-yl]-3-(4-tert-butyl-benzenesulfonylamino)-3-(4-fluoro-phenyl)-propionamide] |
| < 10 | O=C(CC(NS(=O)(=O)c1cccc(C(F)(F)F)c1)c1ccccc1F)N[C@@H]1CCCc2cc(CN3CCCCC3)ccc21 (some centres unmarked) [fg, 3-(2-Fluoro-phenyl)-N-(6-piperidin-1-ylmethyl-1,2,3,4-tetrahydro-naphthalen-1-yl)-3-(3-trifluoromethyl-benzenesulfonylamino)-propionamide] |
| < 10 | CC(C)(C)NCc1ccc2c(c1)CCC[C@H]2NC(=O)C[C@@H](NS(=O)(=O)c1cccc(C(F)(F)F)c1)c1cccc(C#N)c1 [cy, N-[6-(tert-Butylamino-methyl)-1,2,3,4-tetrahydro-naphthalen-1-yl]-3-(3-cyano-phenyl)-3-(3-trifluoromethyl-benzenesulfonylamino)-propionamide] |
| < 10 | CC(C)CNCc1ccc2c(c1)CCC[C@H]2NC(=O)C[C@@H](NS(=O)(=O)c1ccc(C(C)(C)C)cc1)c1ccc(F)cc1 [dj, 3-(4-tert-Butyl-benzenesulfonylamino)-3-(4-fluoro-phenyl)-N-[6-(isobutylamino-methyl)-1,2,3,4-tetrahydro-naphthalen-1-yl]-propionamide] |
| < 10 | CC(C)CNC(C)c1ccc2c(c1)CCC[C@H]2NC(=O)C[C@@H](NS(=O)(=O)c1cccc(C(F)(F)F)c1)c1ccccc1 (stereo partly drawn) [Example 220a, (3R)-3-((hydroxy(oxido)(3-(trifluoromethyl)phenyl)-lambda-4—sulfanyl)amino)-N-((1R)-6-((1R)-1-((2-methylpropyl)amino)ethyl)-1,2,3,4-tetrahydro-1-naphthalenyl)-3-phenylpropanamide] |
| < 10 | O=C(CC(NS(=O)(=O)c1cccc(C(F)(F)F)c1)c1ccc(F)cc1)N[C@@H]1CCCc2cc(CN3CCCCC3)ccc21 (some centres unmarked) [fh, 3-(4-Fluoro-phenyl)-N-(6-piperidin-1-ylmethyl-1,2,3,4-tetrahydro-naphthalen-1-yl)-3-(3-trifluoromethyl-benzenesulfonylamino)-propionamide] |
| < 10 | O=C(C[C@@H](NS(=O)(=O)c1cccc(C(F)(F)F)c1)c1ccccc1)N[C@@H]1CCOc2cc(CN3CCC(F)CC3)ccc21 [Example 185, (3R)-N-((4R)-7-((4-Fluoro-1-piperidinyl)methyl)-3,4-dihydro-2H-chromen-4-yl)-3-phenyl-3-(((3-(trifluoromethyl)phenyl)sulfonyl)amino)propanamide] |
| < 10 | CC(C)(C)NCc1ccc2c(c1)OCC[C@H]2NC(=O)C[C@@H](NS(=O)(=O)c1cccc(C(F)(F)F)c1)c1ccc(F)cc1 [co, N-[7-(tert-Butylamino-methyl)-chroman-4-yl]-3-(4-fluoro-phenyl)-3-(3-trifluoromethyl-benzenesulfonylamino)-propionamide] |
| < 10 | C=C(CN1CCCCC1)c1ccc2c(c1)CCC[C@H]2NC(=O)C[C@@H](NS(=O)(=O)c1ccc(Cl)c(Cl)c1)c1ccccc1 [Example 218d, (3R)-3-(((3,4-dichlorophenyl)sulfonyl)amino)-3-phenyl-N-((1R)-6-(1-(1-piperidinylmethyl)ethenyl)-1,2,3,4-tetrahydro-1-naphthalenyl)propanamide] |
| < 10 | CN([C@H](CC(=O)N[C@@H]1CCCc2cc(CN3CCCCC3)ccc21)c1ccccc1)S(=O)(=O)c1cccc(C(F)(F)F)c1 [aa, (3R)-3-(methyl((3-(trifluoromethyl)phenyl)sulfonyl)amino)-3-phenyl-N-((1R)-6-(1-piperidinylmethyl)-1,2,3,4-tetrahydro-1-naphthalenyl)propanamide] |
| < 10 | CC(C)(C)NCc1ccc2c(c1)OCC[C@H]2NC(=O)C[C@@H](NS(=O)(=O)c1cccc(C(F)(F)F)c1)c1ccccc1 [Example 170, (3R)-N-((4R)-7-(((1,1-Dimethylethyl)amino)methyl)-3,4-dihydro-2H-chromen-4-yl)-3-phenyl-3-(((3-(trifluoromethyl)phenyl)sulfonyl)amino)propanamide] |
| < 10 | O=C(CC(NS(=O)(=O)c1cccc(C(F)(F)F)c1)c1ccc(F)cc1)N[C@@H]1CCCc2cc(CN3CCCCC3)ccc21 (stereo in doubt) [ba, (3S)-3-(4-fluorophenyl)-N-((1R)-6-(1-piperidinylmethyl)-1,2,3,4-tetrahydro-1-naphthalenyl)-3-(((3-(trifluoromethyl)phenyl)sulfonyl)amino)propanamide] |
| < 10 | COc1ccc([C@@H](CC(=O)N[C@@H]2CCCc3cc(CN4CCCCC4)ccc32)NS(=O)(=O)c2cccc(C(F)(F)F)c2)cn1 [ay, (3R)-3-(6-(methyloxy)-3-pyridinyl)-N-((1R)-6-(1-piperidinylmethyl)-1,2,3,4-tetrahydro-1-naphthalenyl)-3-(((3-(trifluoromethyl)phenyl)sulfonyl)amino)propanamide] |
| < 10 | O=C(C[C@@H](NS(=O)(=O)c1ccc(Cl)c(Cl)c1)c1cccc(Cl)c1)N[C@@H]1CCCc2cc(CN3CCCCC3)ccc21 [ed, 3-(3-Chloro-phenyl)-3-(3,4-dichloro-benzenesulfonylamino)-N-(6-piperidin-1-ylmethyl-1,2,3,4-tetrahydro-naphthalen-1-yl)-propionamide] |
| < 10 | O=C(CC(NS(=O)(=O)c1cccc(C(F)(F)F)c1)c1ccc(Cl)cc1)N[C@@H]1CCCc2cc(CN3CCCCC3)ccc21 (some centres unmarked) [ex, 3-(4-Chloro-phenyl)-N-(6-piperidin-1-ylmethyl-1,2,3,4-tetrahydro-naphthalen-1-yl)-3-(3-trifluoromethyl-benzenesulfonylamino)-propionamide] |
| < 10 | O=C(C[C@@H](NS(=O)(=O)c1cccc(C(F)(F)F)c1)c1ccc(F)cc1)N[C@@H]1CCOc2cc(CN3CCCC3)ccc21 [ct, 3-(4-Fluoro-phenyl)-N-(7-pyrrolidin-1-ylmethyl-chroman-4-yl)-3-(3-trifluoromethyl-benzenesulfonylamino)-propionamide] |
| < 10 | CC(C)CNC(C)c1ccc2c(c1)CCC[C@H]2NC(=O)C[C@@H](NS(=O)(=O)c1ccc2ccccc2c1)c1ccccc1 (some centres unmarked) [Example 220g] |
| < 10 | C=C(CN1CCCC1)c1ccc2c(c1)CCC[C@H]2NC(=O)C[C@@H](NS(=O)(=O)c1cccc(C(F)(F)F)c1)c1ccccc1 [Example 218q, (3R)-3-phenyl-N-((1R)-6-(1-(1-pyrrolidinylmethyl)ethenyl)-1,2,3,4-tetrahydro-1-naphthalenyl)-3-(((3-(trifluoromethyl)phenyl)sulfonyl)amino)propanamide] |
| < 10 | O=C(C[C@@H](NS(=O)(=O)c1cccc(C(F)(F)F)c1)c1ccc(F)cc1)N[C@@H]1CCCc2cc(CN3CCC(F)CC3)ccc21 [eb, 3-(4-Fluoro-phenyl)-N-[6-(4-fluoro-piperidin-1-ylmethyl)-1,2,3,4-tetrahydro-naphthalen-1-yl]-3-(3-trifluoromethyl-benzenesulfonylamino)-propionamide] |
| < 10 | O=C(C[C@@H](NS(=O)(=O)c1cccc(C(F)(F)F)c1)c1ccccc1)N[C@@H]1CCOc2cc(CN3CCC(F)(F)CC3)ccc21 [Example 198, (3R)-N-((4R)-7-((4,4-Difluoro-1-piperidinyl)methyl)-3,4-dihydro-2H-chromen-4-yl)-3-phenyl-3-(((3-(trifluoromethyl)phenyl)sulfonyl)amino)propanamide] |
